Measurements: patent US6107017A, “Photographic elements containing high-boiling diester solvents” (Eastman Kodak Company, priority 1998, dated 2000)

Columns and labels:
Assay type in all cases: physicochemical
[1] = Water solubility from light scattering (at 500 nm) of dispersions of the high-boiling solvent in water
Description: (§1) Water solubilities were obtained from plots of light scattering (at 500 nm) of dispersions of the high-boiling solvent in water versus concentration. The light scattering density goes to zero at the solubility limit, when dispersions of high-boiling solvent are diluted. […] Viscosities reported in Table I were measured using a Brookfield cone/plate viscometer. Solvents of high polarity and/or polarizability are often needed to provide suitably bathochromic hues for the types of dyes commonly encountered in color photographic materials. Dye C1, whose structure is provided after Table I, is representative of such dyes. The visible absorption maxima (Lambda max) values for C1, measured with a Perkin Elmer Lambda 2S spectrophotometer, are provided in Table I as measures of solvent polarity/polarizability.

[2] = Viscosity measured using a Brookfield cone/plate viscometer
Description: Water solubilities were obtained from plots of light scattering (at 500 nm) of dispersions of the high-boiling solvent in water versus concentration. The light scattering density goes to zero at the solubility limit, when dispersions of high-boiling solvent are diluted. Values of log P calculated using MEDCHEM version 3.54 are also given in Table I and serve as rough indicators of water solubility. Viscosities reported in Table I were measured using a Brookfield cone/plate viscometer. Solvents of high polarity and/or polarizability are often needed to provide suitably bathochromic hues for the types of dyes commonly encountered in color photographic materials. Dye C1, whose structure is provided after Table I, is representative of such dyes. The visible absorption maxima (Lambda max) values for C1, measured with a Perkin Elmer Lambda 2S spectrophotometer, are provided in Table I as measures of solvent polarity/polarizability.

[3] = Visible absorption maximum (Lambda max) of Dye C1 in the high-boiling solvent, as measure of solvent polarity/polarizability; details: Perkin Elmer Lambda 2S spectrophotometer
Description: as §1

[4] = Lambda max of the yellow dye produced from Coupler Y-1 on development; details: yellow dye from Y-1, at a blue density of about 1.0
Description: For this example, Coupler Y-1 (structure below) was dispersed and coated with comparative high-boiling solvent B1 and with high-boiling solvent A2 of this invention. The dispersions were prepared by adding an oil phase containing a 1:1:3 weight ratio of Y-1:high-boiling solvent: ethyl acetate to an aqueous phase containing gelatin and the dispersing agent ALKANOL XC (mixed isomers of triisopropyl-2-naphthalene sulfonic acid, sodium salt, DuPont) in a 10:1 weight ratio. The mixture was then passed through a colloid mill to disperse the oil in the aqueous phase as small particles. On coating, the ethyl acetate auxiliary solvent evaporates. […]
After hardening, samples of each of the films in Table II were given a sensitometric white light exposure and processed using the KODAK FLEXICOLOR C-41 procedure described in Table III. Measurements of status M blue density versus exposure were made for each processed film strip, and photographic contrast (gamma) was determined from the slopes of such plots. […] The gamma value of 2.45 obtained with solvent A2 of this invention in coating B is similar to the gamma value of 2.63 obtained from comparative solvent B1 in coating A. Spectra of the yellow dye produced from Y-1 on development were measured at a blue density of about 1.0 using a Perkin Elmer Lambda 2S spectrophotometer. […]

| Structure (SMILES) | Water Solubility [1] [mg/L] | Viscosity [2] [centipoise] | Lambda max of Dye C1 [3] [nm] | Lambda max [4] [nm] |
| --- | --- | --- | --- | --- |
| Cc1ccc(C(=O)OCCC(C)OC(=O)c2ccc(C)cc2)cc1 (centres unmarked) [A1] | 1.2 | 265 | 672 |  |
| CCCCC(COC(=O)c1ccccc1)OC(=O)c1ccccc1 (centres unmarked) [A2] | 1.1 | 157 | 672 | 449 |
| Cc1cccc(C(=O)OCCC(C)OC(=O)c2cccc(C)c2)c1 (centres unmarked) [A3] | 1.9 | 295 | 672 |  |
| O=C(OCCCCCOC(=O)c1ccccc1)c1ccccc1 [A4] | 2.4 | 70 | 674 |  |
| CCCC(COC(=O)c1ccccc1)OC(=O)c1ccccc1 (centres unmarked) [A5] | 1.5 | 122 | 673 |  |
| CCCCOC(=O)c1ccccc1C(=O)OCCCC [B1, dibutyl phthalate, reference compound] |  |  |  | 449 |

Now from value to compound, other results behind:

| Water Solubility [1] [mg/L] | Viscosity [2] [centipoise] | Lambda max of Dye C1 [3] [nm] | Structure (SMILES) | Lambda max [4] [nm] |
| --- | --- | --- | --- | --- |
|  | 6 | 661 | CCCCC(CC)COC(=O)c1ccccc1 (centres unmarked) [B3, reference compound] |  |
| 10 |  |  | O=C(OCCc1ccccc1)c1ccccc1 [B4, reference compound] |  |
